This is an account of results in patent US4837333A, “Substituted alkylidene imidazoles” (G. D. Searle & Co., priority 1987, dated 1989).

For one test, the target named is T1, thromboxane synthetase (Homo sapiens, UniProt P24557).
T1 construct: The citrated blood was centrifuged at 160 g for 10 mins. at 22° C. to obtain platelet rich plasma (prp); endogenous in cells; host or cells: human platelets in citrated platelet rich plasma from healthy male donors
T1 sequence (P24557 1-533): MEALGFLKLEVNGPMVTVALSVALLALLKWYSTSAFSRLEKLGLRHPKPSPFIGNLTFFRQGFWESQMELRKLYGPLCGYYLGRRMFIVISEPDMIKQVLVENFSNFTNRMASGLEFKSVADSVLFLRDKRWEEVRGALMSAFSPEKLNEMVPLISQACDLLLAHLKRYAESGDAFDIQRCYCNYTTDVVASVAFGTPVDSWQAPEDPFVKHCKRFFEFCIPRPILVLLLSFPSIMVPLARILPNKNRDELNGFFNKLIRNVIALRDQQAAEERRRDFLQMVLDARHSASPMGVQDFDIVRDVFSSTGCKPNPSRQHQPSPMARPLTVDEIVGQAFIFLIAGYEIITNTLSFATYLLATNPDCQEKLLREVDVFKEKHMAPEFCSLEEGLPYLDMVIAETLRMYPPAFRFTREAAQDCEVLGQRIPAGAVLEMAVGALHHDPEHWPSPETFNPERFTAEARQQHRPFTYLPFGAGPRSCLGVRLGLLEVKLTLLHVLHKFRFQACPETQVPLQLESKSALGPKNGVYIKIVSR
In words: Thromboxane production in Human Platelet Rich Plasma (collagen-stimulated, TxB2 radioimmunoassay). The test is classed as cell-based. The following applies: 10 min. incubation, collagen 20 μg/ml, 37° C., read-out: ACTIVITY (IC50 × 10^6 M), inhibition of collagen-induced TxB2 generation. How it is done:
(i) inhibition of the generation of thromboxane A2 as determined by radioimmunoassay of its stable metabolite, thromboxane B2 (New England Nuclear, Thromboxane B2 [^3 H] RIA kit, Catalogue No. NEK 007); and
Various compounds of the present invention were evaluated utilizing an in vitro radioimmunoassay as described in the following Example in order to determine inhibition of thromboxane production.
Thromboxane production in Human Platelet Rich Plasma
(a) Platelet rich plasma (prp) preparation
Human venous blood was collected from healthy male donors, who had denied any medication during the previous 14 days. Nine volumes of blood were mixed with one volume of 3.24% trisodium citrate. The citrated blood was centrifuged at 160 g for 10 mins. at 22° C. to obtain platelet rich plasma (prp). The platelets were then counted on a Coulter counter, and the platelet count was adjusted to 200,000 per μl with plasma.
(b) Thromboxane generation
The prp was then dispensed as aliquots into micro-Eppendorf tubes, maintained at 37° C. in a dry bath. The compound to be evaluated was dissolved either in saline, ethanol, or dimethylsulphoxide, and added in duplicate to the prp aliquots to produce a final concentration in the range of 0.1-30 μg/ml. When ethanol or dimethylsulphoxide was used to dissolve the compound, triplicate controls containing the same percentage of ethanol or dimethyl sulphoxide as the test compound was made. The final concentration of organic solvent was never greater than 0.1%, which has been determined to have no effect on TxB2 generation.
Following a 10 min. incubation withtest compounds or controls, collagen was added to the tubes containing the test compounds to produce a final concentration of 20 μg/ml. The tubes were then whirly-mixed for 15 seconds and replaced in the dry bath for a further 10 minutes. Saline was added to the tubes containing the controls, in lieu of collagen. The reaction was then stopped by rapid centrifugation (15000 g for 3 mins). The plasma was removed and frozen at -29° C. until assayed.
(c) Assay of Thromboxane B2
Aliquots (100 μl) of thromboxane TxB2 (plasma extract or standards 50 to 10,000 pg/ml), [^3 H]-TxB2 (approximately 15,000 dpm) and anti-TxB2 antiserum (0.5 μg/100 μl) were combined in […] phosphate buffer+0.1% gelatin+thimerosal (pH 6.8) were incubated for 16 hours at 4° C. The free and protein bound [^3 H]-TxB2 were separated by absorption onto activated charcoal followed by centrifugation. 1.0 ml of the supernatant was added to an aqueous scintillation fluid, and the radioactivity present was counted in a liquid scintillation counter. The binding of [^3 H]-TxB2 in the absence of added TxB2 was approximately 55%. The minimum concentration of TxB2 to be detected accurately in the plasma was 50 pg.ml. Cross reactivity with other prostaglandins was less than 0.005% except with PGD2 wherein the cross reactivity was 1%.
The plasma samples were initially assayed to give approximation of TxB2 content. The plasma was then appropriately diluted and re-assayed in duplicate to give final values.
The amount of TxB2 generated by collagen was calculated by subtracting mean values obtained for the saline stimulated platelets from the mean values obtained from the collagen stimulated platelets. The amount of TxB2 generated in the presence of each concentration of test compound was expressed as a % of control and dose response curves were constructed to determine the concentration of test compound which produced 50% inhibition.

Test [1] deals with Thromboxane Formation (plasma TXB2). In words: Whole Blood Aggregation and Thromboxane Formation In Vivo: Guinea Pig (plasma TXB2 by RIA). The settings on record: oral (dose not given), ex vivo collagen-stimulated citrated whole blood, normalized to platelet count. Here is the method: Whole Blood Aggregation and Thromboxane Formation In Vivo: Guinea Pig
All guinea pigs (albino male Dunkin-Bartley, 300-350 g) were fasted overnight before use in the test. The test compound was administered by oral dosing needle to conscious animals. All test compounds, if not water soluble, were administered formulated in a 50% PEG 400/50% carboxymethylcellulose mixture as solution or suspension. Oral dose volumes were 0.1 ml per 100 g body weight.
Animals were anaesthetized with pentabarbitone sodium (60 mg/kg) given intraperitoneally approximately 10 minutes before the bleed time. Once surgically anaesthetized, the peritoneal cavity was opened, and 4.5 ml blood was drawn into a syringe containing 0.5 ml 3.0% trisodium citrate (9:1 v/v) from the abdominal aorta via a 21/23 gauge butterfly needle. The blood was gently mixed with the citrate in the syringe, and transferred to a screwcap plastic tube. Animals were dosed and bled at one hour intervals.
Aggregation of the citrated guinea pig whole blood was carried out within 1-2 hours of bleeding, using standard whole blood aggregometry and counting technique. Aliquots (0.55 ml) of citrated whole blood were heated to 37° C. and stirred at 1000 RPM in an aggregometer. An initial 50 μl sample of blood was withdrawn for counting, collagen was added, and additional samples were withdrawn at 1, 2, 3 and 4 minutes. Aggregation was monitored by noting the decrease in single platelet count. Buffer (no collagen) control were included.
At the end of the four minute incubation for platelet counting, the remainder of each blood sample was allowed to stir for one additional minute. At 5 minutes, 1.0 μl of 19 mg/ml indomethacin (dissolved in dimethylsulfoxide) was added to each sample, resulting in a final indomethacin concentration of 30 ug/ml. The resulting solutions were mixed (15-30 seconds) and cooled on ice. Samples were centrifuged and 150 ul of plasma was removed. The plasma samples were frozen until radioimmunoassay for TXB2. The radioimmunoassay was conducted as previously described at plasma dilutions of 1:20. Two vehicle administered control aminals were run. Groups of at least four animals per test compound were utilized.
The raw results obtained in the RIA from a 0.1 ml sample of 1:20 diluted plasma were corrected to pg/ml in original plasma sample (×200). The R.I.A. values were then normalized for initial platelet count within the blood sample to 5.0×10^8 ml^-1 (range of platelet count in citrated guinea pig whole blood was varied between the limits […] ml^-1). The test and control results were then compared, and inhibition (%) calculated in the normal way. Statistical analysis is again by Student's t-test.

Take `CCOC(=O)c1cccc(/C=C(/COCc2ccc(OC)cc2)Cn2ccnc2)c1` [9 (E-isomer), ethyl 3-[3-(1H-imidazol-1-yl)-2-[[(4-methoxyphenyl)methoxy)methyl]-1E-propenyl]-benzoate]: at thromboxane synthetase, the IC50 stood at 403 µM.
With `CCOC(=O)c1cccc(/C=C(\COCc2ccc(OC)cc2)Cn2ccnc2)c1` [9 (Z-isomer), ethyl 3-[3-(1H-imidazol-1-yl)-2-[[(4-methoxyphenyl)methoxy]methyl]-1Z-propenyl]benzoate], the IC50 at thromboxane synthetase amounted to 11.5 µM.
On the same count and under the same terms, the value for `COc1ccc(COC/C(=C/c2ccc(C(=O)O)cc2)Cn2ccnc2)cc1` [Example 2, 4-[3-(1H-imidazol-1-yl)-2-[[(4-methoxyphenyl)methoxy]methyl]-1E-propenyl]benzoic acid] was 18.2 µM; that for `COc1ccc(C=C(COCc2ccc(OC)cc2)Cn2ccnc2)cc1` [Example 7, 1-[3-(4-Methoxyphenyl)-2-[[(4-methoxyphenyl)methoxy]methyl]-2-propenyl]-1H-imidazole] was 17.3 µM.
On the same count and under the same terms, the value for `CCOC(=O)c1ccc(/C=C(/COCc2ccc(OC)cc2)Cn2ccnc2)cc1` [1 (E-isomer), ethyl 4-[3-(1H-imidazol-1-yl)-2-[[(4-methoxyphenyl)methoxy]methyl]-1E-propenyl]benzoate] was 0.89 µM.
On the same count and under the same terms, the result for `COc1ccc(COCC(=CCCCCC(=O)O)Cn2ccnc2)cc1` [Example 6, 8-(1H-Imidazol-1-yl)-7-[[(4-methoxyphenyl)methoxy]methyl]-6-octenoic acid] reads 1.4 µM.
For the compound `CCOC(=O)c1ccc(/C=C(\COCc2ccc(F)cc2)Cn2ccnc2)cc1` [13 (Z-isomer), ethyl 4-[2-[[(4-fluorophenyl)methoxy]-methyl]-3-(1H-imidazol-1-yl)-1Z-propenyl]benzoate], on thromboxane synthetase, the IC50 is 0.45 µM. The “% INHIBITION (plasma TXB2)” value in test [1] is -49.1%.
`COc1ccc(COCC(=CCCCCCC(=O)O)Cn2ccnc2)cc1` [Example 5, 9-(1H-Imidazol-1-yl)-8-[[(4-methoxyphenyl)methoxy]methyl]-7-nonenoic acid]: the IC50 on thromboxane synthetase was determined as 4.6 µM. Also, the “% INHIBITION (plasma TXB2)” value in test [1] is recorded as -4.0%.
For `CCOC(=O)c1ccc(/C=C(/COCc2ccc(OC)cc2)Cn2ccnc2)cc1OC` [11 (E-isomer)] the same measures were 21.8 µM and -36.0%.
Regarding `CCOC(=O)CCCCCC=C(COCc1ccc(OC)cc1)Cn1ccnc1` [Example 4, ethyl 9-(1H-imidazol-1-yl)-8-[[(4-methoxyphenyl)methoxy]methyl]-7-nonenoate], on thromboxane synthetase, the IC50 was 9.3 µM.
For the compound `CCOC(=O)CCCCCC=C(CCCc1ccc(OC)cc1)Cn1ccnc1` [Example 8, Ethyl 8-[(1H-imidazol-1-yl)methyl]-11-(4-methoxyphenyl)-7-undecenoate], at thromboxane synthetase, the IC50 stood at 1.8 µM.
For `COc1ccc(COC/C(=C\c2ccc(C(=O)O)cc2)Cn2ccnc2)cc1` [Example 3, 4-[3-(1H-Imidazol-1-yl)-2-[[(4-methoxyphenyl)methoxy]methyl]-1Z-propenyl]benzoic acid], the IC50 on thromboxane synthetase was 0.56 µM.
On to `CCOC(=O)c1ccc(/C=C(/COCc2ccc(OC)cc2)Cn2ccnc2)cc1Cl` [10 (E-isomer)], for which the IC50 at thromboxane synthetase came out at 4.78 µM. For the same compound, in test [1], the “% INHIBITION (plasma TXB2)” value was -18.6%.
On the same counts, the results for `CCOC(=O)c1ccc(/C=C(\CCCc2ccc(OC)cc2)Cn2ccnc2)cc1` [12 (E-isomer), ethyl 4-[2-[(1H-imidazol-1-yl)-methyl]-5-(4-methoxyphenyl)-1E-pentenyl]benzoate] are 0.15 µM and -92.3%.
For `CCOC(=O)c1ccc(/C=C(\COCc2ccc(OC)cc2)Cn2ccnc2)cc1` [1 (Z-isomer), ethyl 4-[3-(1H-imidazol-1-yl)-2-[[(4-methoxyphenyl)methoxy]methyl]-1Z-propenyl]benzoate] the same measures were 0.022 µM and -45.5%.
